Source: patent US9290501B2, “Methods, assays and compounds for treating bacterial infections by inhibiting methylthioinosine phosphorylase” (Albert Einstein College of Medicine, Inc., priority 2010, dated 2016)
“And” between values parts separate entries of the source, which are not always exact repeats. Identical values can stand only once. Like-named read-outs stand apart in the source and are kept apart here. Values belong to the molecule of their own block, whether it stands above or below them.

Legend:
PaMTIP [1] = molecular target: T1, PaMTIP (Pseudomonas aeruginosa (strain ATCC 15692 / DSM 22644 / CIP 104116 / JCM 14847 / LMG 12228 / 1C / PRS 101 / PAO1), UniProt Q9HZK1); assay: biochemical
Method: Assays for slow-onset inhibitors were carried out by adding 1 nM PaMTIP into reaction mixtures at 25° C. containing 100 mM Hepes, pH 7.4, 100 mM phosphate, pH 7.4, 2 mM MTI, 5 mM DTT, 0.5 unit of xanthine oxidase and variable inhibitor concentration. Inhibitors were present at >10 times the enzyme concentration, required to simplify data analysis (24). Assays for MTA inhibition used 200 μM MTI. Controls having no enzyme and no inhibitor were included in all of the inhibition assays. Inhibition constants were obtained by fitting initial rates with variable inhibitor concentrations to equation (1) using GraFit 5 (Erithacus Software):
[formula] where vi is the initial rate in the presence of inhibitor, vo is the initial rate in the absence of inhibitor, Km is the Michaelis constant for MTI, [S] and [I] are MTI and inhibitor concentrations, respectively, and Ki is the inhibition constant. Slow-onset inhibitors display a second phase of tighter binding after reaching a thermodynamic equilibrium with the enzyme. The equilibrium constant for the second binding phase is indicated as Ki*. This constant was obtained by fitting initial final rates and inhibitor concentrations to equation (1) using GraFit 5 (22).

PfPNP [2] = molecular target: T2, PfPNP (Plasmodium falciparum (isolate 3D7), UniProt Q8I3X4); conditions: read-out: dissociation constants; cited from earlier work
PaMTIP [3] = molecular target: T1, PaMTIP; format: biochemical; conditions: for fold decreases of Kcat/Km in comparison with those of MTI / kcat/Km: PaMTIP; for Km / kcat: PaMTIP phosphorolysis, 100 mM phosphate, pH 7.4, 25° C.
Method: Product formation was monitored by conversion of hypoxanthine to uric acid by xanthine oxidase (22). The extinction coefficient of this assay was 12.9 mM^−1cm^−1 at 293 nm. Enzyme activity with adenosine or MTA as substrates was determined by conversion of adenine to 2,8-dihydroxyadenine using the same coupling enzyme (23). Its extinction coefficient at 293 nm was 15.2 mM^−1cm^−1. Reactions were carried out at 25° C. in 1 cm cuvettes, 1 mL volumes of 100 mM Hepes, pH 7.4, 100 mM phosphate, pH 7.4, variable concentrations of nucleoside substrate, 0.5 unit of xanthine oxidase, 5 mM DTT, and appropriate amounts of purified MTIP. Reactions were initiated by addition of enzyme and the initial rates were monitored with a CARY 300 UV-Visable spectrophotometer. Control rates (no PaMTIP) were subtracted from initial rates. Km and kcat values for PaMTIP were obtained by fitting initial rates to the Michaelis-Menten equation using GraFit 5 (Erithacus Software).

PfADA = PfADA (Plasmodium falciparum (isolate 3D7), UniProt Q8IJA9); conditions: PfADA deamination; cited from earlier work
PfPNP [4] = molecular target: T2, PfPNP; conditions: cited from earlier work
[5] = initial binding phase, 2 mM MTI, 25° C., pH 7.4, values ± S.E., read-out: Ki
[6] = second tighter binding phase of slow-onset inhibition, values ± S.E., read-out: Ki*

Structure (SMILES): CSC[C@@]1(O)CN(Cc2c[nH]c3c(=O)[nH]cnc23)C[C@@H]1O [4′-HO-MT-DADMe-ImmH, (3S,4R)-1-[(9-deazahypoxanthin-9-yl)methyl]-3,4-dihydroxy-4-methylthiomethylpyrrolidine]
- inhibitor potency in words (PaMTIP [1]): nanomolar inhibitor

Structure (SMILES): CSC[C@H]1CN(Cc2c[nH]c3c(=O)[nH]cnc23)C[C@@H]1O [MT-DADMe-ImmH, (3R,4S)-1-[(9-deazahypoxanthin-9-yl)methyl]-3-hydroxy-4-(methylthiomethyl)pyrrolidine]
- Ki (PfPNP [2]): 0.9 nM
- Ki (PaMTIP [1]; Ki*, second tighter binding phase of slow-onset inhibition, values ± S.E.): 0.34 ± 0.02 nM
- Ki (PaMTIP [1]; [5]): 0.8 ± 0.1 nM

- Ki (PaMTIP [1]; [6]): 0.096 nM
Structure (SMILES): CSCC(CO)NCc1c[nH]c2c(=O)[nH]cnc12 (stereo not shown) [MT-SerMe-ImmH]

Structure (SMILES): CSCC(CO)(CO)NCc1c[nH]c2c(=O)[nH]cnc12 [MT-TrisMe-ImmH, 7-((1,3-dihydroxy-2-(methylthiomethyl)propan-2-ylamino)methyl)-3H-pyrrolo[3,2-d]pyrimidin-4(5H)-one]
- Ki (PaMTIP [1]; Ki): 19 nM

Structure (SMILES): O=c1[nH]cnc2c([C@@H]3N[C@H](CSc4ccccc4)[C@@H](O)[C@H]3O)c[nH]c12 [PhT-ImmH]
- mode of inhibition (PaMTIP [1]): slow-onset, tight-binding inhibition
- Ki (PaMTIP [1]; [5]): 0.66 ± 0.09 nM
- Ki (PaMTIP [1]; [6]): 0.035 nM

Structure (SMILES): CCCSC[C@H]1CN(Cc2c[nH]c3c(=O)[nH]cnc23)C[C@@H]1O [PrT-DADMe-ImmH]
- fold tighter binding / enhanced potency relative to MT-DADMe-ImmH (PaMTIP [1]): 4 fold

Structure (SMILES): Nc1ncnc2c1ncn2[C@@H]1O[C@H](CO)[C@@H](O)[C@H]1O [adenosine]
- fold decreases of Kcat/Km in comparison with those of MTI (PaMTIP [3]): 750 fold
- kcat/Km (PaMTIP [3]): 2400 M⁻¹ s⁻¹
- Km (PaMTIP [3]): 23 ± 1 µM
- kcat (PaMTIP [3]): 0.0549 s⁻¹ and 0.0549 ± 0.0005 s⁻¹
- kcat/Km (PaMTIP [3]; Table 2): 2.4 ± 0.1 × 10^3 M^−1s^−1
- kcat/Km (PfADA): 62000 M⁻¹ s⁻¹

Structure (SMILES): OC[C@H]1O[C@@H](n2cnc3c(O)ncnc32)[C@H](O)[C@@H]1O [inosine]
- fold decreases of Kcat/Km in comparison with those of MTI (PaMTIP [3]): 300 fold
- kcat/Km (PaMTIP [3]): 6300 M⁻¹ s⁻¹
- Km (PaMTIP [3]): 90 ± 20 µM
- kcat (PaMTIP [3]): 0.57 s⁻¹ and 0.57 ± 0.04 s⁻¹
- kcat/Km (PaMTIP [3]; Table 2): 6 ± 1 × 10^3 M^−1s^−1
- kcat/Km (PfPNP [4]): 360000 M⁻¹ s⁻¹
